Assay results from patent publication US20060252807A1, “Novel ortho-terphenyl inhibitors of p38 kinase and methods of treating inflammatory disorders” (Kalypsys, Inc., priority 2005, published 2006).

molecular target: T1, active p38 alpha enzyme (Upstate Biotechnology) (Homo sapiens, UniProt Q16539); test: p38α biochemical assay (ATP turnover, luminescent detection, Cambrex PKlight); conditions: p38α biochemical assay, Table 1 Biological Activity
T1 construct: purchased Upstate Biotechnology
Procedure, shortened: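 Luminescent PKlight readout of total ATP consumption follows a 2 h, 30C kinase reaction. Enzyme and MapkapK2 substrate run with 1.4 uM ATP (final) in buffer containing Mg2+, Ca2+, chelators, glycerol, reducing agent and BSA; test compounds added by pintool from DMSO.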

T1 sequence (Q16539 whole entry): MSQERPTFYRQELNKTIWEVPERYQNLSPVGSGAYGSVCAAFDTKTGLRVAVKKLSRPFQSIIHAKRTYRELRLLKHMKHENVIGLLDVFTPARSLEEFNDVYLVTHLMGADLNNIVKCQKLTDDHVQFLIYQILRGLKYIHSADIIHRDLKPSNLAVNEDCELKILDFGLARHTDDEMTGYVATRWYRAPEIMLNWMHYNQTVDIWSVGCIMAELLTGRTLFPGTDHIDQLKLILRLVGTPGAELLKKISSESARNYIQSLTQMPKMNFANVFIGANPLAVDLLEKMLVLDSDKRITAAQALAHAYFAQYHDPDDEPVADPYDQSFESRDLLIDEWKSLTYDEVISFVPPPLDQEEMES

CCOc1ccc2ccccc2c1C(=O)NCc1onc(-c2ccc(F)cc2)c1-c1nc(C(=O)NC(C)C)cs1 [Example 772] and CC(C)NC(=O)c1csc(-c2c(-c3ccc(F)cc3)noc2CNC(=O)c2cc3ccccc3cc2O)n1 [Example 719] cannot be ordered by IC50: greater than 1 µM for the first, greater than 1 µM for the second.

CC(C)NC(=O)c1csc(-c2c(-c3ccc(F)cc3)noc2CNC(=O)CC2Cc3ccccc3C2)n1 [Example 678] and CC(C)NC(=O)c1csc(-c2c(-c3ccc(F)cc3)noc2CNC(=O)C2CCc3ccccc3C2)n1 (stereo not shown) [Example 679] cannot be ordered by IC50: greater than 1 µM for the first, greater than 1 µM for the second.

CC(C)NC(=O)c1csc(-c2oc(CN3CCN(C(=O)/C=C/c4cccc(O)c4)CC3)nc2-c2ccc(F)cc2)n1 [Example 405] and CC(C)NC(=O)c1csc(-c2oc(CN3CCN(C(=O)c4cccc(F)c4)CC3)nc2-c2ccc(F)cc2)n1 [Example 364] cannot be ordered by IC50: greater than 1 µM for the first, greater than 1 µM for the second.

Cc1ccc(C(=O)NCc2onc(-c3ccc(F)cc3)c2-c2nc(C(=O)NC(C)C)cs2)cc1 [Example 598] and CC(C)NC(=O)c1csc(-c2c(-c3ccc(F)cc3)noc2CNC(=O)c2ccc(C(C)C)cc2)n1 [Example 646] cannot be ordered by IC50: greater than 1 µM for the first, greater than 1 µM for the second.

COc1ccc(O)c(C(=O)NCc2nc(-c3ccc(F)cc3)c(-c3nc(C(=O)NC(C)C)cs3)o2)c1 [Example 187] and Cc1cccc(C(=O)NCc2nc(-c3ccc(F)cc3)c(-c3nc(C(=O)NC(C)C)cs3)o2)c1C [Example 136] cannot be ordered by IC50: greater than 1 µM for the first, greater than 1 µM for the second.

CC(C)NC(=O)c1csc(-c2oc(CNC(=O)Cc3ccc4c(c3)OCO4)nc2-c2ccc(F)cc2)n1 [Example 217] and CC(C)NC(=O)c1csc(-c2oc(CNC(=O)c3ncc[nH]3)nc2-c2ccc(F)cc2)n1 [Example 106] cannot be ordered by IC50: greater than 1 µM for the first, no more than 1 µM for the second.

CC(C)NC(=O)c1csc(-c2oc(CN3CCN(C(=O)c4cc(Cl)ccc4[N+](=O)[O-])CC3)nc2-c2ccc(F)cc2)n1 [Example 512] and COc1ccc(C(=O)N2CCN(Cc3nc(-c4ccc(F)cc4)c(-c4nc(C(=O)NC(C)C)cs4)o3)CC2)c(O)c1 [Example 425] cannot be ordered by IC50: greater than 1 µM for the first, no more than 1 µM for the second.

COc1cccc(C(=O)N2CCN(Cc3nc(-c4ccc(F)cc4)c(-c4nc(C(=O)NC(C)C)cs4)o3)CC2)c1OC [Example 465] and Cc1ccc(C(=O)N2CCN(Cc3nc(-c4ccc(F)cc4)c(-c4nc(C(=O)NC(C)C)cs4)o3)CC2)cc1Br [Example 530] cannot be ordered by IC50: greater than 1 µM for the first, greater than 1 µM for the second.

CC(C)NC(=O)c1csc(-c2oc(CNC(=O)c3cn(C)cn3)nc2-c2ccc(F)cc2)n1 [Example 117] and CC(=O)Oc1ccccc1C(=O)NCc1nc(-c2ccc(F)cc2)c(-c2nc(C(=O)NC(C)C)cs2)o1 [Example 216] cannot be ordered by IC50: greater than 1 µM for the first, greater than 1 µM for the second.

CC(C)CC(=O)N1CCN(Cc2nc(-c3ccc(F)cc3)c(-c3nc(C(=O)NC(C)C)cs3)o2)CC1 [Example 341] and CC(C)NC(=O)c1csc(-c2oc(CN3CCN(C(=O)C4CCCN4C(=O)OCc4ccccc4)CC3)nc2-c2ccc(F)cc2)n1 (stereo not shown) [Example 564] cannot be ordered by IC50: greater than 1 µM for the first, greater than 1 µM for the second.

CC(C)NC(=O)c1csc(-c2oc(CNC(=O)C(NC(=O)OC(C)(C)C)C(C)C)nc2-c2ccc(F)cc2)n1 (stereo not shown) [Example 298] and CC(C)NC(=O)c1csc(-c2c(-c3ccc(F)cc3)noc2CNC(=O)/C=C/c2ccccc2Cl)n1 [Example 706] cannot be ordered by IC50: greater than 1 µM for the first, greater than 1 µM for the second.

In the case of CC(C)NC(=O)c1csc(-c2c(-c3ccc(F)cc3)noc2CNC(=O)c2ccc(Cl)cc2[N+](=O)[O-])n1 [Example 748], the IC50 is reported as greater than 1 µM.

same assay, conditions: p38α kinase; Table 1 Biological Activity

CC1(C)CC(NC(=O)c2csc(-c3c(-c4ccc(F)cc4)n[nH]c3C3CCNCC3)n2)CC(C)(C)N1 [Example 2129] and N#CCNC(=O)c1csc(-c2c(-c3ccc(F)cc3)n[nH]c2C2CCNCC2)n1 [Example 2032] cannot be ordered by IC50: greater than 1 µM for the first, no more than 1 µM for the second.

Cc1cccnc1NCc1onc(-c2ccc(F)cc2)c1-c1nc(C(=O)NC(C)C)cs1 [Example 1637] and Cc1ccccc1NCc1onc(-c2ccc(F)cc2)c1-c1nc(C(=O)NC(C)C)cs1 [Example 1633] cannot be ordered by IC50: greater than 1 µM for the first, greater than 1 µM for the second.

CC(C)NC(=O)c1csc(-c2oc(CN[C@H](C)c3ccccc3)nc2-c2ccc(F)cc2)n1 [Example 1098] and CC(C)NC(=O)c1csc(-c2oc(CN[C@@H](C)c3ccccc3)nc2-c2ccc(F)cc2)n1 [Example 1097] cannot be ordered by IC50: greater than 1 µM for the first, greater than 1 µM for the second.

CC(C)NC(=O)c1csc(-c2c(-c3ccc(F)cc3)noc2CNC2CCN(Cc3ccccc3)C2)n1 (stereo not shown) [Example 1497] and CC(C)NC(=O)c1csc(-c2c(-c3ccc(F)cc3)noc2CN2CCN(c3ccccc3)CC2)n1 [Example 1567] cannot be ordered by IC50: greater than 1 µM for the first, greater than 1 µM for the second.

CC(C)NC(=O)c1csc(-c2c(-c3ccc(F)cc3)n[nH]c2C2CCN(C(=O)c3ccc(Cl)c([N+](=O)[O-])c3)CC2)n1 [Example 988] and COc1ccc([N+](=O)[O-])c(C(=O)N2CCC(c3[nH]nc(-c4ccc(F)cc4)c3-c3nc(C(=O)NC(C)C)cs3)CC2)c1 [Example 979] cannot be ordered by IC50: no more than 1 µM for the first, greater than 1 µM for the second.

Cc1nc(-c2ccc(F)cc2)c(-c2nc(C(=O)NC3CCN(Cc4ccccc4)C3)cs2)s1 (stereo not shown) [Example 1822] and Cc1nc(-c2ccc(F)cc2)c(-c2nc(C(=O)N(CCO)Cc3ccccc3)cs2)s1 [Example 1884] cannot be ordered by IC50: no more than 1 µM for the first, greater than 1 µM for the second.

CC(C)NC(=O)c1csc(-c2c(-c3ccc(F)cc3)n[nH]c2C2CCN(C(=O)c3ccc4c(c3)OCO4)CC2)n1 [Example 891] and CC(C)NC(=O)c1csc(-c2c(-c3ccc(F)cc3)n[nH]c2C2CCN(C(=O)/C=C/c3ccc4c(c3)OCO4)CC2)n1 [Example 969] cannot be ordered by IC50: greater than 1 µM for the first, greater than 1 µM for the second.

Cc1cccc(C(=O)N2CCC(c3[nH]nc(-c4ccc(F)cc4)c3-c3nc(C(=O)NC(C)C)cs3)CC2)c1 [Example 835] and CC(C)NC(=O)c1csc(-c2c(-c3ccc(F)cc3)n[nH]c2C2CCN(C(=O)c3cccc(C#N)c3)CC2)n1 [Example 844] cannot be ordered by IC50: greater than 1 µM for the first, greater than 1 µM for the second.

CC(C)c1ccc(CNC(=O)c2csc(-c3c(-c4ccc(F)cc4)n[nH]c3C3CCNCC3)n2)cc1 [Example 2118] and O=C(NCc1ccccc1)c1csc(-c2c(-c3ccc(F)cc3)n[nH]c2C2CCNCC2)n1 [Example 2062] cannot be ordered by IC50: greater than 1 µM for the first, greater than 1 µM for the second.

Cc1ccccc1CC(=O)N1CCC(c2[nH]nc(-c3ccc(F)cc3)c2-c2nc(C(=O)NC(C)C)cs2)CC1 [Example 849] and CC(=O)NCC(=O)N1CCC(c2[nH]nc(-c3ccc(F)cc3)c2-c2nc(C(=O)NC(C)C)cs2)CC1 [Example 2177, 2-|5-|1-(2-Acetylamino-acetyl)-piperidin-4-yl|-3-(4-fluoro-phenyl)-1H-pyrazol-4-yl|-thiazole-4-carboxylic acid isopropylamide] cannot be ordered by IC50: greater than 1 µM for the first, no more than 1 µM for the second.

O=C(NCc1cccs1)c1csc(-c2c(-c3ccc(F)cc3)n[nH]c2C2CCNCC2)n1 [Example 2065] and CCN(CC)CCCC(C)NC(=O)c1csc(-c2c(-c3ccc(F)cc3)n[nH]c2C2CCNCC2)n1 (stereo not shown) [Example 2130] cannot be ordered by IC50: greater than 1 µM for the first, greater than 1 µM for the second.

COc1cc(CN(C)Cc2onc(-c3ccc(F)cc3)c2-c2nc(C(=O)NC(C)C)cs2)cc(OC)c1OC [Example 1611] and COc1cc(CN(C)Cc2nc(-c3ccc(F)cc3)c(-c3nc(C(=O)NC(C)C)cs3)o2)cc(OC)c1OC [Example 1285] cannot be ordered by IC50: greater than 1 µM for the first, greater than 1 µM for the second.

CC(=O)Oc1ccc(C(=O)N2CCC(c3[nH]nc(-c4ccc(F)cc4)c3-c3nc(C(=O)NC(C)C)cs3)CC2)cc1 [Example 927] and CCCCCc1ccc(C(=O)N2CCC(c3[nH]nc(-c4ccc(F)cc4)c3-c3nc(C(=O)NC(C)C)cs3)CC2)cc1 [Example 971] cannot be ordered by IC50: greater than 1 µM for the first, greater than 1 µM for the second.

CC(C)NC(=O)c1csc(-c2c(-c3ccc(F)cc3)noc2CNCCC(C)(C)C)n1 [Example 1410] and CC(C)NC(=O)c1csc(-c2c(-c3ccc(F)cc3)noc2CN(C)CCO)n1 [Example 1515] cannot be ordered by IC50: greater than 1 µM for the first, no more than 1 µM for the second.

Cc1cccc(CNCc2nc(-c3ccc(F)cc3)c(-c3nc(C(=O)NC(C)C)cs3)o2)c1 [Example 1096] and CCCNCc1nc(-c2ccc(F)cc2)c(-c2nc(C(=O)NC(C)C)cs2)o1 [Example 1055] cannot be ordered by IC50: greater than 1 µM for the first, greater than 1 µM for the second.

CC(C)NC(=O)c1csc(-c2oc(CNc3ccc(Cl)c(Cl)c3)nc2-c2ccc(F)cc2)n1 [Example 1357] and Cc1cccc(NCc2onc(-c3ccc(F)cc3)c2-c2nc(C(=O)NC(C)C)cs2)n1 [Example 1635] cannot be ordered by IC50: greater than 1 µM for the first, greater than 1 µM for the second.

COc1ccccc1CNCc1onc(-c2ccc(F)cc2)c1-c1nc(C(=O)NC(C)C)cs1 [Example 1455] and COc1ccccc1CCNCc1onc(-c2ccc(F)cc2)c1-c1nc(C(=O)NC(C)C)cs1 [Example 1476] cannot be ordered by IC50: greater than 1 µM for the first, greater than 1 µM for the second.

Cc1nc(-c2ccc(F)cc2)c(-c2nc(C(=O)NCCN3CCOCC3)cs2)s1 [Example 1765] and Cc1nc(-c2ccc(F)cc2)c(-c2nc(C(=O)NCc3ccc(F)cc3)cs2)s1 [Example 1759] cannot be ordered by IC50: greater than 1 µM for the first, no more than 1 µM for the second.

CC(C)NC(=O)c1csc(-c2c(-c3ccc(F)cc3)noc2CNCc2ccccc2F)n1 [Example 1436] and CC(C)NC(=O)c1csc(-c2c(-c3ccc(F)cc3)noc2CNCc2cccs2)n1 [Example 1419] cannot be ordered by IC50: greater than 1 µM for the first, greater than 1 µM for the second.

Cc1nc(-c2ccc(F)cc2)c(-c2nc(C(=O)NCc3ccc(C(F)(F)F)cc3)cs2)s1 [Example 1818] and Cc1nc(-c2ccc(F)cc2)c(-c2nc(C(=O)N(CCN(C)C)Cc3ccccc3)cs2)s1 [Example 1903] cannot be ordered by IC50: no more than 1 µM for the first, greater than 1 µM for the second.

CC(C)NC(=O)c1csc(-c2c(-c3ccc(F)cc3)noc2CN2CCN(c3ccccc3F)CC2)n1 [Example 1579] and CC(C)NC(=O)c1csc(-c2oc(CN3CCN(c4cccc(C(F)(F)F)c4)CC3)nc2-c2ccc(F)cc2)n1 [Example 1297] cannot be ordered by IC50: greater than 1 µM for the first, greater than 1 µM for the second.

CC(C)NC(=O)c1csc(-c2c(-c3ccc(F)cc3)n[nH]c2C2CCN(C(=O)C(F)(F)F)CC2)n1 [Example 2174, 2-{3-(4-Fluoro-phenyl)-5-|1-(2,2,2-trifluoro-acetyl)-piperidin-4-yl|-1H-pyrazol-4-yl}-thiazole-4-carboxylic acid isopropylamide] and CC(C)NC(=O)c1csc(-c2c(-c3ccc(F)cc3)noc2CNc2ccccc2C(C)C)n1 [Example 1657] cannot be ordered by IC50: no more than 1 µM for the first, greater than 1 µM for the second.
